The text below walks through data of patent publication US20100267712A1, “ISOINDOLINE COMPOUNDS FOR THE TREATMENT OF SPINAL MUSCULAR ATROPHY AND OTHER USES” (The United States of America, as represented by the …, priority 2007, published 2010).

For orientation: melting point means the temperature of the solid-liquid transition. As a reminder, the EC50 is the concentration giving half of the maximal effect. One may read the maximal fold induction as the ratio of treated to control signal.

The subject of data set [1] is translational stop codon read-through, human SMN2 open reading frame-luciferase. In words: Translational read-through luciferase reporter assay (luciferase preceded by the open reading frame of the human SMN2 gene). It counts as cell-based. An excerpt:
This assay was similar in design to that described in WO 01/44516 A2. This was a cell-based luciferase reporter assay designed to detect translational read-through via insertion of a translational stop codon within the coding sequence that includes luciferase. In the presence of compounds that promote read-through of translational stop codons, active luciferase was produced and detected via chemiluminescence. Compounds of the invention typically were active in three versions of this assay: luciferase reporter containing a UGA stop codon, luciferase reporter containing a UAG stop codon, which is the first stop codon downstream of the improper splice junction between exons 6 and 8 in the human SMN2 transcript, and luciferase preceded by the open reading frame of the human SMN2 gene.
(In general: In a reporter assay the amount or activity of a reporter protein is the signal.)

For data set [2], the system named is SMN2-linked luciferase-reporter gene construct. In words: SMN Splice Reporter Assay (SMN2-linked luciferase reporter). It counts as cell-based. As to conditions: for EC50: cervical carcinoma cell lines, SMN2 splice luciferase reporter; for Fold Increase: fold-increase of luciferase over baseline reading of transformed cells without any test compound. In short, it runs like this:
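Cervical carcinoma cells carrying an SMN2-luciferase splicing reporter, in-frame only with exon 7 inclusion, were treated with compound. Luciferase activity reported as fold increase over untreated transformed cells, with EC50 derived.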

Counter-ions that a name gives are not always drawn.

Consider `COc1ccc2c(c1)C(=O)N(c1ccc3cnn(C)c3c1)C2`, for which the melting point was in the range of 175 to 177 °C.

As to `COc1ccc2c(c1)C(=O)N(c1ccc3ccn(CCN)c3c1)C2` (as salt: hydrochloride) [Example 23, 2-(1-(2-aminoethyl)-1H-indol-6-yl)-6-methoxyisoindolin-1-one hydrochloride], the melting point was 280 to 282 °C (dec.).

`COc1ccc2c(c1)C(=O)N(c1ccc3c(ccn3C)c1)C2` [Example 1, 6-methoxy-2-(1-methyl-1H-indol-5-yl)isoindolin-1-one] came in with a melting point of 193 to 197 °C.

`Cn1ccc2cc(N3Cc4ccc(OC(F)F)cc4C3=O)ccc21` [Example 2, 6-(difluoromethoxy)-2-(1-methyl-1H-indol-5-yl)isoindolin-1-one] displayed a melting point of 180 to 182 °C.

Consider `Cn1ccc2cc(N3Cc4ccc(OC(F)(F)Br)cc4C3=O)ccc21` [Example 3, 6-(bromodifluoromethoxy)-2-(1-methyl-1H-indol-5-yl)isoindolinl-one], for which the melting point lay in the range of 185 to 186 °C.

For the compound `Cn1ccc2cc(N3Cc4ccc(OC(F)(F)C(F)Cl)cc4C3=O)ccc21` (centres unmarked) [Example 4, 6-(2-chloro-1,1,2-trifluoroethoxy)-2-(1-methyl-1H-indol-5-yl)isoindolin-1-one], the melting point lay within 200 to 205 °C.

The compound `Cn1ccc2cc(N3Cc4ccc(O)cc4C3=O)ccc21` [Example 5, 6-hydroxy-2-(1-methyl-1H-indol-5-yl)isoindolin-1-one] showed a melting point of 230 to 235 °C.

As to `CCOc1ccc2c(c1)C(=O)N(c1ccc3c(ccn3C)c1)C2` [Example 6, 6-ethoxy-2-(1-methyl-1H-indol-5-yl)isoindolin-1-one], the melting point was 185 to 190 °C.

`Cn1ccc2cc(N3Cc4ccc(OCC(F)(F)F)cc4C3=O)ccc21` [Example 7, 2-(1-methyl-1H-indol-5-yl)-6-(2,2,2-trifluoroethoxy)isoindolin-1-one] displayed a melting point of 182 to 188 °C.

Consider `CC(=O)Nc1ccc2c(c1)C(=O)N(c1ccc3c(ccn3C)c1)C2` [Example 8, N-(2-(1-methyl-1H-indol-5-yl)-3-oxoisoindolin-5-yl)acetamide], for which the melting point is 275 to 280 °C.

The compound `Cn1ccc2cc(N3Cc4c(N)cccc4C3=O)ccc21` [Example 9, 4-amino-2-(1-methyl-1H-indol-5-yl)isoindolin-1-one] gave a melting point of 198 to 203 °C.

With `CC(=O)Nc1cccc2c1CN(c1ccc3c(ccn3C)c1)C2=O` [Example 10, N-(2-(1-methyl-1H-indol-5-yl)-1-oxoisoindolin-4-yl)acetamide], the melting point is 239 to 243 °C.

`Cn1ccc2cc(N3Cc4ccc(Br)cc4C3=O)ccc21` [Example 11, 6-bromo-2-(1-methyl-1H-indol-5-yl)isoindolin-1-one] came in with a melting point of 235 to 237 °C.

Compound `CC(C)Cc1ccc2c(c1)C(=O)N(c1ccc3c(ccn3C)c1)C2` [Example 12, 6-isobutyl-2-(1-methyl-1H-indol-5-yl)isoindolin-1-one] returned a melting point of 193 to 194 °C.

Compound `CCCCc1ccc2c(c1)C(=O)N(c1ccc3c(ccn3C)c1)C2` [Example 13, 6-butyl-2-(1-methyl-1H-indol-5-yl)isoindolin-1-one] gave a melting point of 167 to 168 °C.

As for `C/C=C(/C)c1ccc2c(c1)C(=O)N(c1ccc3c(ccn3C)c1)C2` [Example 14, (Z)-6-(but-2-en-2-yl)-2-(1-methyl-1H-indol-5-yl)isoindolin-1-one], the melting point is 144 to 145 °C.

The compound `CCC(C)c1ccc2c(c1)C(=O)N(c1ccc3c(ccn3C)c1)C2` (centres unmarked) [Example 15, 6-sec-butyl-2-(1-methyl-1H-indol-5-yl)isoindolin-1-one] came in with a melting point of 146 to 147 °C.

With `Cn1ccc2cc(N3Cc4ccc(N5CCCC5)cc4C3=O)ccc21` [Example 16, 2-(1-methyl-1H-indol-5-yl)-6-(pyrrolidin-1-yl)isoindolin-1-one], the melting point lay within 252 to 253 °C.

`COc1ccc2c(c1)C(=O)N(c1ccc3c(ccn3C(C)C)c1)C2` [Example 17, 2-(1-isopropyl-1H-indol-5-yl)-6-methoxyisoindolin-1-one] returned a melting point of 144 to 148 °C.

As for `COc1ccc2c(c1)C(=O)N(c1ccc3c(c1)cc(C)n3C)C2` [Example 18, 2-(1,2-dimethyl-1H-indol-5-yl)-6-methoxyisoindolin-1-one], the melting point is 209 to 213 °C.

`COc1ccc2c(c1)CN(c1ccc3c(ccn3C)c1)C2` [Example 19, 5-(5-methoxyisoindolin-2-yl)-1-methyl-1H-indole] returned a melting point of 193 to 196 °C.

In data set [1], `Cn1ccc2cc(N3Cc4ccc(Br)cc4C3=O)ccc21` [Example 119521] showed a half-maximal effective concentration (EC50) of 2960 nM and a maximal fold induction of 1.56. In addition, in data set [2], a half-maximal response (EC50) required 96 nM and the “Fold Increase” value was found to be 1.491.

With `COCn1ccc2cc(N3Cc4ccc(OC)cc4C3=O)ccc21` [Example 119658], in data set [1], the EC50 worked out at 6030 nM and the maximal fold induction was determined as 1.19. Besides, in data set [2], the EC50 is 59 nM and the “Fold Increase” value amounted to 1.42.

On to `COCCn1ccc2cc(N3Cc4ccc(OC)cc4C3=O)ccc21` [Example 119659], for which, in data set [1], it took 752 nM to reach a half-maximal effect (EC50) and the maximal fold induction worked out at 1.38. For the same compound, in data set [2], the EC50 came out at 68 nM and the “Fold Increase” value came to 1.405.

In data set [1], `COc1ccc2c(c1)C(=O)N(c1ccc3c(c1)N(C)CCO3)C2` [Example 119867] returned an EC50 of 676 nM and a maximal fold induction of 2.04. In data set [2], the midpoint of the response, the EC50, lay at 117 nM and the “Fold Increase” value is given as 1.495.

With `COc1cc2c(cc1OC)C(=O)N(c1ccc3ccn(C)c3c1)C2` [Example 120594], in data set [1], the EC50 worked out at 19400 nM and the maximal fold induction was determined as 2.08. In addition, in data set [2], the EC50 was 2060 nM and the “Fold Increase” value is reported as 1.561.

`Cn1ccc2cc(N3Cc4ccc(Cl)cc4C3=O)ccc21` [Example 120599]: in data set [1], the EC50 worked out at 1890 nM and the maximal fold induction was found to be 1.88. In data set [2], a half-maximal response (EC50) required 61 nM and the “Fold Increase” value was found to be 1.407.

In data set [1], `COc1ccc2c(c1)C(=O)N(c1ccc3c(cnn3C)c1)C2` [Example 120600] yielded an EC50 of 4890 nM and a maximal fold induction of 1.83. Moreover, in data set [2], the EC50 stood at 59 nM and the “Fold Increase” value worked out at 1.312.

Take `COc1ccc2c(c1)C(=O)N(c1ccc3[nH]ncc3c1)C2` [Example 120601]: in data set [1], a half-maximal effect (EC50) was put at 15600 nM and the maximal fold induction stood at 1.65. Also, the “Fold Increase” value in data set [2] amounted to 1.059.

`COc1ccc2c(c1)C(=O)N(c1ccc3cnn(C)c3c1)C2` [Example 120604]: in data set [1], the EC50 came out at 7910 nM and the maximal fold induction came to 1.65. Moreover, in data set [2], the EC50 came to 415 nM and the “Fold Increase” value was 1.441.

In data set [1], `COc1ccc2c(c1)C(=O)N(c1ccc3nccnc3c1)C2` [Example 120791] registered a half-maximal effective concentration (EC50) of 641 nM and a maximal fold induction of 1.91. Also, in data set [2], the midpoint of the response, the EC50, lay at 70 nM and the “Fold Increase” value amounted to 1.372.

Consider `COc1ccc2c(c1)C(=O)N(c1ccc3nccn3c1)C2` [Example 120955], for which, in data set [1], the midpoint of the response, the EC50, lay at 14100 nM and the maximal fold induction came out at 1.66. For the same compound, in data set [2], the EC50 turned out to be 1590 nM and the “Fold Increase” value came to 1.265.

In data set [1], `CC(C)n1ccc2cc(N3Cc4ccc(OC(F)F)cc4C3=O)ccc21` [Example 121259] registered an EC50 of 32 nM and a maximal fold induction of 1.03. Further, the “Fold Increase” value in data set [2] came to 1.166.

`COc1ccc2c(c1)C(=O)N(c1ccc3nc(C)ncc3c1)C2` [Example 121924]: in data set [1], the EC50 came to 2650 nM and the maximal fold induction turned out to be 1.66. Besides, in data set [2], it took 1360 nM to reach a half-maximal effect (EC50) and the “Fold Increase” value was 1.489.

In data set [1], `CC(=O)Nc1ccc2c(c1)C(=O)N(c1ccc3c(ccn3C)c1)C2` [Example 122435] yielded an EC50 of 1290 nM and a maximal fold induction of 1.98. In addition, in data set [2], a half-maximal effect (EC50) was put at 143 nM and the “Fold Increase” value came out at 1.412.

Regarding `COc1ccc2c(c1)C(=O)N(c1ccc3sc(C)cc3c1)C2` [Example 122685], in data set [1], a half-maximal response (EC50) required 667 nM and the maximal fold induction turned out to be 1.87. In data set [2], the EC50 worked out at 24 nM and the “Fold Increase” value turned out to be 1.251.

For the compound `Cc1cc2cc(N3Cc4ccc(Br)cc4C3=O)ccc2n1C` [Example 122818], in data set [1], the EC50 is 12800 nM and the maximal fold induction came out at 1.81. Further, in data set [2], a half-maximal response (EC50) required 207 nM and the “Fold Increase” value was found to be 1.551.

In data set [1], `Cc1cc2cc(N3Cc4ccc(N5CCCC5)cc4C3=O)ccc2n1C` [Example 123330] showed a maximal fold induction of 1.4. In addition, in data set [2], the “Fold Increase” value is given as 1.113.

With `Cc1cc2cc(N3Cc4ccc(OC(C)C)cc4C3=O)ccc2n1C` [Example 123934], in data set [1], the EC50 worked out at 97700 nM and the maximal fold induction was 1.3. Besides, in data set [2], the response was half-maximal at 63 nM (EC50) and the “Fold Increase” value is 1.554.

`CC(C)n1ccc2cc(N3Cc4ccc(Cl)cc4C3=O)ccc21` [Example 125094] showed a maximal fold induction in data set [1] of 1.16. In data set [2], a half-maximal effect (EC50) was put at 9 nM and the “Fold Increase” value worked out at 1.256.

`CC(C)n1ccc2cc(N3Cc4ccc(Br)cc4C3=O)ccc21` [Example 125270] yielded a maximal fold induction in data set [1] of 1.19. Besides, in data set [2], the EC50 turned out to be 16 nM and the “Fold Increase” value was 1.446.
